Source: article PMC11259170, “Small-molecule probe for IBD risk variant GPR65 I231L alters cytokine signaling networks through positive allosteric modulation” (Science Advances, 2024)
Read-outs that look alike come from different tables or passages of the source.

Key:
[1] = system: GFP-expressing HeLa cells; assay: cAMP detection in HeLa expression cell line, GFP control; format: cell-based, human; settings: Homo sapiens, HeLa, NA = no activity; for Emax: relative to 100uM forskolin (100%) and DMSO (0%), read-out: GFP Max Activity %
Procedure: (§1) HeLa stable expression cell lines were produced by lentiviral transduction. Briefly, lentiviral plasmids for each GPCR with a C-terminal V5 Tag ([…]) were made in a pLX317 backbone using competent Escherichia coli (New England Biolabs, C3050H). Lenti-X 293 T (Takara, 632810) cells were transfected with the lentiviral plasmids to produce virus. Low-passage HeLa cells (American Type Culture Collection, CCL-2) were then transduced with lentivirus. After 48 hours, HeLa cells were cultured under selection with puromycin (3 μg/ml) and allowed to recover and expand before storing stocks in liquid nitrogen.
(§2) cAMP was measured in cells using the Lance Ultra cAMP Kit. HeLa cells were cultured under puromycin (3 μg/ml) selection. One day before the experiment, cells were seeded in T75 flasks and allowed to adhere overnight. On the day of the experiment, cells were washed twice with Dulbecco’s PBS and lifted using prewarmed 1× versene solution (Gibco, 15040066). Cells were counted in HBSS (Gibco, 14025092) and then resuspended in stimulation buffer prepared according to the manufacturer’s instructions and adjusted to pH 7.2 using 1 M sodium hydroxide. Cells were added to the plate at a density of 1500 cells per well in white opaque 384-well assay ready microplates containing 100 nl of 10 mM compound in DMSO. Cells were stimulated for 30 min at RT, then lysed and incubated with detection reagents for 1 hour in the dark at RT. Plates were read on BMG Labtech PHERAstar FSX (excitation, 337 nm; emission, 620 and 665 nm). Data analysis was performed using GraphPad Prism.

hGPR65 = target: T1, hGPR65 (Homo sapiens, UniProt Q8IYL9); assay: cAMP detection in HeLa expression cell line, hGPR65; format: cell-based; settings: for EC50 / Emax: NA = no activity; for EC50: read-out: hGPR EC50; for Emax: HeLa, relative to 100uM forskolin (100%) and DMSO (0%), read-out: hGPR Max Activity %
T1 construct: expressed in transfected cells; host or cells: HeLa (ATCC CCL-2), lentiviral transduction, pLX317
T1 sequence (Q8IYL9 whole entry): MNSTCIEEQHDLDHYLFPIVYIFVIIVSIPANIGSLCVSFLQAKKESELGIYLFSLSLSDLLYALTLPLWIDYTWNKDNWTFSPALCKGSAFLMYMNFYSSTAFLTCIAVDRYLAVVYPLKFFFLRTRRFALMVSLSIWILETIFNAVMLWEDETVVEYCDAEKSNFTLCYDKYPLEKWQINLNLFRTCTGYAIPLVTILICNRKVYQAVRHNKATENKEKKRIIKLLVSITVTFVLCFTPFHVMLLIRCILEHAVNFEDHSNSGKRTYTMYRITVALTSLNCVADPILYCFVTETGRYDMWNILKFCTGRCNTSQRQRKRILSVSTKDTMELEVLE
Procedure: as §1, §2

mGPR65 = target: T2, mGPR65 (Mus musculus, UniProt Q61038); assay: cAMP detection in HeLa expression cell line, mGPR65; format: cell-based; settings: for EC50 / Emax: NA = no activity; for Emax: HeLa, relative to 100uM forskolin (100%) and DMSO (0%), read-out: mGPR Max Activity %
T2 construct: expressed in transfected cells; host or cells: HeLa (ATCC CCL-2), lentiviral transduction, pLX317
T2 sequence (Q61038 whole entry): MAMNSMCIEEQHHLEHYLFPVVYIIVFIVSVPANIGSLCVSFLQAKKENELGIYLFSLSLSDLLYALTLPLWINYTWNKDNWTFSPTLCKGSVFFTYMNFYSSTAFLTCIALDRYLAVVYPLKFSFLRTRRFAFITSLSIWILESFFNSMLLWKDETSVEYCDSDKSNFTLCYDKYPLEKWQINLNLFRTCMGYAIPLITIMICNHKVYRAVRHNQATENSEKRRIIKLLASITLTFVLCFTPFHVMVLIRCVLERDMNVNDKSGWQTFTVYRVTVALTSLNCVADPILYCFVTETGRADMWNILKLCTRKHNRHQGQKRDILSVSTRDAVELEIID
Procedure: as §1, §2

[2] = 1st mGPR column pair, read-out: mGPR EC50
[3] = 2nd mGPR column pair, read-out: mGPR EC50

SMILES | EC50 ([1]; 2nd GFP column pair) [µM] | Emax ([1]; 2nd GFP column pair) [%] | EC50 (hGPR65; 1st hGPR column pair) [µM] | EC50 (hGPR65; 2nd hGPR column pair) [µM] | Emax (hGPR65; 1st hGPR column pair) [%] | Emax (hGPR65; 2nd hGPR column pair) [%] | EC50 (mGPR65; [2]) [µM] | EC50 (mGPR65; [3]) [µM] | Emax (mGPR65; 2nd mGPR column pair) [%] | Emax (mGPR65) [%] | EC50 ([1]; 1st GFP column pair) [µM] | Emax ([1]; 1st GFP column pair) [%] | cAMP production relative to BRD2813, hGPR65 (hGPR65; pH 7.2) | EC50 (mGPR65; mGPR EC50 (uM)) [µM] | cAMP production relative to BRD2813, mGPR65 (mGPR65; pH 7.2)
Cc1cnc(NC(=O)c2cnn3c(O)cc(-c4ccc(COC(C)C)cc4)nc23)cn1 [BRD5073] | 3.53 | 2.17 | 2.16 | 3.05 | 73.6 | 65.1 | 2.27 | 2.78 | 59.1 | 71 |  |  |  |  | 
CC(C)OCc1ccc(-c2cc(O)n3ncc(C(=O)Nc4cccnc4)c3n2)cc1 [BRD5077] | 1.62 | 3.65 | 5.55 | 8.26 | 57.8 | 70.1 | 2.51 | 2.72 | 62.4 | 70 |  |  |  |  | 
Cc1ccc(NC(=O)c2cnn3c(O)cc(-c4ccc(COC(C)C)cc4)nc23)c(Cl)c1 [BRD5081] |  |  | 4.26 | 7.63 | 80.6 | 63.4 | 1.01 | 1.14 | 60.4 | 66.3 | 1.62 | 2.48 |  |  | 
Cc1ccc(NC(=O)c2cnn3c(O)cc(-c4ccc(C(N)=O)cc4)nc23)cc1 [BRD5082] | 17.9 | 7.17 |  |  | 0 |  |  |  |  | 4.93 | 38.5 | 14.2 | eliminated all cAMP activity | 12.3 | eliminated all cAMP activity
CNC(=O)c1ccc(-c2cc(O)n3ncc(C(=O)Nc4ccc(C)cc4)c3n2)cc1 [BRD5083] | 6.27 | 1.9 | 26.2 |  | 75.2 |  |  | 99.6 | 106 |  |  |  |  |  | 
Cc1ccc(NC(=O)c2cnn3c(O)cc(-c4ccc(C(=O)N(C)C)cc4)nc23)cc1 [BRD5084] | 33.6 | 7.64 | 2 | 1.23 | 39.1 | 40.2 | 2.98 | 1.63 | 31.2 | 32.1 | 11.5 | 5.15 |  |  | 
Cc1ccc(NC(=O)c2cnn3c(O)cc(-c4ccc(C(F)(F)F)cc4)nc23)cc1 [BRD5668] | 0.183 | 1.82 | 0.114 | 0.587 | 77 | 70.8 | 3.49 | 6.28 | -22.2 | -22.7 |  |  |  |  | 
